From patent publication US20120108811A1, “PROCESS FOR PREPARING TEMOZOLOMIDE” (FORMOSA LABORATORIES INC., priority 2010, published 2012)

Legend:
Type in all cases: physicochemical
[1] = Long-term stability of Temozolomide prepared by the process of the present invention, 25° C. ± 2° C., 60% ± 5% RH; conditions: for AICA NMT 0.15% / Appearance (White to off-white powder) / Assay (HPLC) (98.0-102.0%) / Purity (HPLC) NLT 99.0% / Total impurities NMT 1.00% / Water content (KF), NMT 1.00% / AHX NMT 0.15% / Individual unknown impurity NMT 0.10%: process of the present invention, 25° C. ± 2° C., RH 60% ± 5%
Excerpt: The Temozolomide was stable at temperature 25 degree ° C. for at least 18 months.

[2] = Accelerated stability of Temozolomide prepared by conventional method, 25° C. ± 2° C., 60% ± 5% RH; conditions: for AICA NMT 0.15% / Appearance (White to off-white powder) / Assay (HPLC) (98.0-102.0%) / Individual unknown impurity NMT 0.10% / Purity (HPLC) NLT 99.0% / Total impurities NMT 1.00% / Water content (KF), NMT 1.00%: conventional method, 25° C. ± 2° C., RH 60% ± 5%
[3] = Long-term stability of Temozolomide prepared by conventional method, 2-8° C.; conditions: conventional method, 2-8° C.
Experimental: The Temozolomide was stable at temperature 2-8° C.

Time stable ([1]; prepared by the process of the present invention, temperature 25 degree ° C.): at least 18 months | AICA NMT 0.15% ([1]; 0 time): 0.01% | Appearance (White to off-white powder) ([1]; 0 time): White | Assay (HPLC) (98.0-102.0%) ([1]; 0 time): 99.7% | Purity (HPLC) NLT 99.0% ([1]; 0 time): 100.0% | Total impurities NMT 1.00% ([1]; 0 time): 0.01% | Water content (KF), NMT 1.00% ([1]; 0 time): 0.09% | AICA NMT 0.15% ([1]; 1 month): 0.01% | Appearance (White to off-white powder) ([1]; 1 month): White | Assay (HPLC) (98.0-102.0%) ([1]; 1 month): 100.0% | Purity (HPLC) NLT 99.0% ([1]; 1 month): 100.0% | Total impurities NMT 1.00% ([1]; 1 month): 0.01% | Water content (KF), NMT 1.00% ([1]; 1 month): 0.12% | AICA NMT 0.15% ([1]; 2 months): 0.01% | Appearance (White to off-white powder) ([1]; 2 months): White | Assay (HPLC) (98.0-102.0%) ([1]; 2 months): 99.4% | Purity (HPLC) NLT 99.0% ([1]; 2 months): 100.0% | Total impurities NMT 1.00% ([1]; 2 months): 0.01% | Water content (KF), NMT 1.00% ([1]; 2 months): 0.04% | AHX NMT 0.15% ([1]; 3 months): 0.01% | AICA NMT 0.15% ([1]; 3 months): 0.11% | Appearance (White to off-white powder) ([1]; 3 months): White | Assay (HPLC) (98.0-102.0%) ([1]; 3 months): 99.4% | Purity (HPLC) NLT 99.0% ([1]; 3 months): 99.7% | Total impurities NMT 1.00% ([1]; 3 months): 0.11% | Water content (KF), NMT 1.00% ([1]; 3 months): 0.11% | Appearance (White to off-white powder) ([1]; 6 months): White | Assay (HPLC) (98.0-102.0%) ([1]; 6 months): 99.3% | Purity (HPLC) NLT 99.0% ([1]; 6 months): 100.0% | Water content (KF), NMT 1.00% ([1]; 6 months): 0.13% | AICA NMT 0.15% ([1]; 9 months): 0.02% | Appearance (White to off-white powder) ([1]; 9 months): White | Assay (HPLC) (98.0-102.0%) ([1]; 9 months): 100.8% | Purity (HPLC) NLT 99.0% ([1]; 9 months): 99.9% | Total impurities NMT 1.00% ([1]; 9 months): 0.02% | Water content (KF), NMT 1.00% ([1]; 9 months): 0.17% | AHX NMT 0.15% ([1]; 12 months): 0.01% | AICA NMT 0.15% ([1]; 12 months): 0.02% | Appearance (White to off-white powder) ([1]; 12 months): Light pink | Assay (HPLC) (98.0-102.0%) ([1]; 12 months): 99.8% | Individual unknown impurity NMT 0.10% ([1]; 12 months): 0.01% | Purity (HPLC) NLT 99.0% ([1]; 12 months): 99.9% | Total impurities NMT 1.00% ([1]; 12 months): 0.04% | Water content (KF), NMT 1.00% ([1]; 12 months): 0.04% | AICA NMT 0.15% ([1]; 18 months): 0.01% | Appearance (White to off-white powder) ([1]; 18 months): White | Assay (HPLC) (98.0-102.0%) ([1]; 18 months): 99.4% | Individual unknown impurity NMT 0.10% ([1]; 18 months): 0.01% | Purity (HPLC) NLT 99.0% ([1]; 18 months): 100.0% | Total impurities NMT 1.00% ([1]; 18 months): 0.02% | Water content (KF), NMT 1.00% ([1]; 18 months): 0.07% | AICA NMT 0.15% ([2]; 0 time): 0.06% | Appearance (White to off-white powder) ([2]; 0 time): White | Assay (HPLC) (98.0-102.0%) ([2]; 0 time): 101.7% | Individual unknown impurity NMT 0.10% ([2]; 0 time): 0.01% | Purity (HPLC) NLT 99.0% ([2]; 0 time): 99.9% | Total impurities NMT 1.00% ([2]; 0 time): 0.08% | Water content (KF), NMT 1.00% ([2]; 0 time): 0.17% | AICA NMT 0.15% ([2]; 1 month): 0.24% | Appearance (White to off-white powder) ([2]; 1 month): Off-white | Assay (HPLC) (98.0-102.0%) ([2]; 1 month): 101.7% | Individual unknown impurity NMT 0.10% ([2]; 1 month): 0.01% | Purity (HPLC) NLT 99.0% ([2]; 1 month): 99.8% | Total impurities NMT 1.00% ([2]; 1 month): 0.25% | Water content (KF), NMT 1.00% ([2]; 1 month): 0.25% | AICA NMT 0.15% ([2]; 2 months): 0.64% | Appearance (White to off-white powder) ([2]; 2 months): Off-white | Assay (HPLC) (98.0-102.0%) ([2]; 2 months): 99.4% | Individual unknown impurity NMT 0.10% ([2]; 2 months): 0.01% | Purity (HPLC) NLT 99.0% ([2]; 2 months): 99.3% | Total impurities NMT 1.00% ([2]; 2 months): 0.67% | Water content (KF), NMT 1.00% ([2]; 2 months): 0.24% | AICA NMT 0.15% ([3]; 0 time): 0.06% | Appearance (White to off-white powder) ([3]; 0 time): White | Assay (HPLC) (98.0-102.0%) ([3]; 0 time): 101.7% | Individual unknown impurity NMT 0.10% ([3]; 0 time): 0.01% | Purity (HPLC) NLT 99.0% ([3]; 0 time): 99.9% | Total impurities NMT 1.00% ([3]; 0 time): 0.08% | Water content (KF), NMT 1.00% ([3]; 0 time): 0.17% | AICA NMT 0.15% ([3]; 1 month): 0.02% | Appearance (White to off-white powder) ([3]; 1 month): White | Assay (HPLC) (98.0-102.0%) ([3]; 1 month): 101.4% | Individual unknown impurity NMT 0.10% ([3]; 1 month): 0.02%
Structure (SMILES): Cn1nnc2c(C(N)=O)ncn2c1=O [Temozolomide, 8-carbamoyl-3-methyl-imidazo[5,1-d]-1,2,3,5-tetrazin-4(3H)-one]
Stability (in words) ([2]; prepared by conventional method, temperature 25 degree ° C.): easily to degrade to out of specification
